Assay results reported in patent publication US10968227B2, “Isoquinoline ether compounds as mGluR4 allosteric potentiators, compositions, and methods of treating neurological dysfunction” (Vanderbilt University, priority 2016, dated 2021).
Converted amounts (≈) assume the structure as drawn.

Assays:
Kinetic solubility = format: physicochemical; conditions: kinetic from dmso stock
[1] = Rat plasma fraction unbound; format: in vitro ADME; conditions: read-out: Rat Fu Plasma
Brain-plasma partition = format: in vivo; conditions: rat; for unbound brain-to-plasma partition coefficient (Kp,uu): unbound brain-plasma ratio, read-out: Brain-Plasma Kp,ω
[2] = Rat brain fraction unbound; format: in vitro ADME; conditions: read-out: Rat Fu Brain
[3] = Human plasma fraction unbound; format: in vitro ADME; conditions: read-out: Human Fu Plasma
[4] = Rat intrinsic and hepatic clearance; format: in vitro ADME
[5] = Human intrinsic and hepatic clearance; format: in vitro ADME
3A4 = 3A4 (Homo sapiens (Human), UniProt P08684); assay: CYP 3A4 inhibition; format: in vitro ADME
2D6 = 2D6 (Homo sapiens (Human), UniProt P10635); assay: CYP 2D6 inhibition; format: in vitro ADME
2C9 = 2C9 (Homo sapiens (Human), UniProt P11712); assay: CYP 2C9 inhibition; format: in vitro ADME
1A2 = 1A2 (Homo sapiens (Human), UniProt P05177); assay: CYP 1A2 inhibition; format: in vitro ADME
Sequence of 1A2 (P05177 whole entry): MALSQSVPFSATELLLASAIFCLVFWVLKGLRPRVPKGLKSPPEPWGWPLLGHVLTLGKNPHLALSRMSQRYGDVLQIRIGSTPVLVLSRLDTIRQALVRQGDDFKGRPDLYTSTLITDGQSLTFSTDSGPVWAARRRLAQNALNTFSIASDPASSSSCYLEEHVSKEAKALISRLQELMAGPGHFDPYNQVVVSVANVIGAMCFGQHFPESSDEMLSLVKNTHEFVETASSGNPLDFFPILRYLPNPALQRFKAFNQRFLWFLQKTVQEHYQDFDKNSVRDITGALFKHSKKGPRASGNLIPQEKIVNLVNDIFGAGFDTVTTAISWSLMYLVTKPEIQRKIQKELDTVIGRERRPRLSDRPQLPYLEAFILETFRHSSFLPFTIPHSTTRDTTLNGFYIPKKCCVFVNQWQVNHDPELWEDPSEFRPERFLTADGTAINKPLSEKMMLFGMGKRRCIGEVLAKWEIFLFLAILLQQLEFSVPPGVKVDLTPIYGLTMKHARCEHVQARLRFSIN

Sequence of 2C9 (P11712 whole entry): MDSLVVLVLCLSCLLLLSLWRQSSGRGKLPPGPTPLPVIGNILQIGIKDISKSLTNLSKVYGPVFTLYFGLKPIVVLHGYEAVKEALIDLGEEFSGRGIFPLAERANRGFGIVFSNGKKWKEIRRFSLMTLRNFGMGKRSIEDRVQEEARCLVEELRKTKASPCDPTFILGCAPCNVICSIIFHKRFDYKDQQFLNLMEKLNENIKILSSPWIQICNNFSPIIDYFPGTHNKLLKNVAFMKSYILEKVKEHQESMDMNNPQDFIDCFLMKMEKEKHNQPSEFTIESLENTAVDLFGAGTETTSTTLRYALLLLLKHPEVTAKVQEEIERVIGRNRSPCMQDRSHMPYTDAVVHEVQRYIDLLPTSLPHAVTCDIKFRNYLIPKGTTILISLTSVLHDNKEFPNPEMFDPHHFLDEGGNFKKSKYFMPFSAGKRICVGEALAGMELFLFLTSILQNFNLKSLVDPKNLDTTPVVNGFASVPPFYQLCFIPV
Sequence of 3A4 (P08684 whole entry): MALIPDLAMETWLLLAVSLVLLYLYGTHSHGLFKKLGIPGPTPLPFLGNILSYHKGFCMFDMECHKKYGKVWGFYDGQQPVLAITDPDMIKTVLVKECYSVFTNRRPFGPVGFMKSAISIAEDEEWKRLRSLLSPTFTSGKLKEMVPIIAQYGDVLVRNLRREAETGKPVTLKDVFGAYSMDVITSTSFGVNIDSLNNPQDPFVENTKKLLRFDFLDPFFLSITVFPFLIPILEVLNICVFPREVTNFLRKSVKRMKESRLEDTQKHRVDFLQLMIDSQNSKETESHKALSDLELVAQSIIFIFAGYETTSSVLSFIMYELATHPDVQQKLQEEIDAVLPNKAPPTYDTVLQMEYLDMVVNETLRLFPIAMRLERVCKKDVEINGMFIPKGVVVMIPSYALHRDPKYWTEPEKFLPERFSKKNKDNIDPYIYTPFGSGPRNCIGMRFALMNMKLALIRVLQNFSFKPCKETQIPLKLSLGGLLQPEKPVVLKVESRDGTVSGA
Sequence of 2D6 (P10635 whole entry): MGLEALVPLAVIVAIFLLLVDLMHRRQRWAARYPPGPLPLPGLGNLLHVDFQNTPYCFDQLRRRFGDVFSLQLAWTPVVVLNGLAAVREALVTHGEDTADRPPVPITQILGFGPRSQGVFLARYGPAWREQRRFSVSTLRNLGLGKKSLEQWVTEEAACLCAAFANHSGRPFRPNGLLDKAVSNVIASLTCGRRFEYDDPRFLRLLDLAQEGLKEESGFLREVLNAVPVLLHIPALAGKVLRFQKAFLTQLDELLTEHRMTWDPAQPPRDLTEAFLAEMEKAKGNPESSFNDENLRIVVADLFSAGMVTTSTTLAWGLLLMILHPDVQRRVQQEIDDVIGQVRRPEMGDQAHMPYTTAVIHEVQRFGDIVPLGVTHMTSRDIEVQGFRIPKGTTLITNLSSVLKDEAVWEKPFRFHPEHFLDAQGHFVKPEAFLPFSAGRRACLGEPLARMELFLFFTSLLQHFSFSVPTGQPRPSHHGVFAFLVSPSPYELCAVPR

Row | solubility kinetic (Kinetic solubility) | fraction unbound [1] | Kp (Brain-plasma partition) | unbound brain-to-plasma partition coefficient (Kp,uu) (Brain-plasma partition) | fraction unbound [2] | fraction unbound [3] | CLint scaled [4] | Rat CLhep [4] | CLint scaled [5] | Human CLhep [5] | IC50 (3A4) | IC50 (2D6) | IC50 (2C9) | IC50 (1A2) | SMILES
1 | 0.9 ± 0.2 µM (≈ 0.325 µg/mL) |  |  |  |  |  | 518 mL/min/kg | 61.7 mL/min/kg | 129 mL/min/kg | 18.1 mL/min/kg |  |  |  |  | C[C@H]1OCC[C@H]1Oc1nccc2cc(Nc3n[nH]c4ncccc34)ccc12 [Compound 92]
2 | 1 ± 0.1 µM (≈ 0.353 µg/mL) |  |  |  |  |  | 161 mL/min/kg | 48.8 mL/min/kg | 96.8 mL/min/kg | 17.3 mL/min/kg |  |  |  |  | COCCOc1nccc2cc(Nc3n[nH]c4cc(F)cnc34)ccc12 [Compound 97]
3 |  | 0.027 | 1.11 | 0.33 | 0.008 | 0.019 | 145 mL/min/kg | 47.2 mL/min/kg | 75.3 mL/min/kg | 16.4 mL/min/kg |  |  |  |  | CO[C@H](C)COc1nccc2cc(Nc3n[nH]c4nccnc34)ccc12 [Compound 84]
4 | 1.1 ± 0.6 µM (≈ 0.435 µg/mL) |  |  |  |  |  | 156 mL/min/kg | 48.3 mL/min/kg | 46.1 mL/min/kg | 14.4 mL/min/kg |  |  |  |  | Fc1cnc2c(Nc3ccc4c(OCC5COCCO5)nccc4c3)n[nH]c2c1 (centres unmarked) [Compound 100]
5 | 1.6 ± 0.2 µM (≈ 0.535 µg/mL) |  |  |  |  |  | 216 mL/min/kg | 52.9 mL/min/kg | 30 mL/min/kg | 12.4 mL/min/kg |  |  |  |  | COCCOc1nccc2cc(Nc3n[nH]c4ccccc34)ccc12 [Compound 98]
6 | 2.7 ± 0.4 µM (≈ 0.976 µg/mL) |  |  |  |  |  | 204 mL/min/kg | 52.1 mL/min/kg | 37.8 mL/min/kg | 13.5 mL/min/kg |  |  |  |  | C[C@@H]1C[C@H](Oc2nccc3cc(Nc4n[nH]c5cccnc45)ccc23)CO1 [Compound 89]
7 | 20.5 ± 2.1 µM (≈ 8 µg/mL) |  |  |  |  |  | 718 mL/min/kg | 63.8 mL/min/kg | 136 mL/min/kg | 18.2 mL/min/kg |  |  |  |  | c1cnc2c(Nc3ccc4c(OCCN5CCOCC5)nccc4c3)n[nH]c2c1 [Compound 93]
8 | 0.7 ± 0.2 µM (≈ 0.266 µg/mL) |  |  |  |  |  | 227 mL/min/kg | 53.5 mL/min/kg | 36.8 mL/min/kg | 13.4 mL/min/kg |  |  |  |  | Fc1cnc2[nH]nc(Nc3ccc4c(OC5CCOCC5)nccc4c3)c2c1 [Compound 99]
9 | 0.4 µM (≈ 0.146 µg/mL) |  |  |  |  |  | 127 mL/min/kg | 45.1 mL/min/kg | 40.3 mL/min/kg | 13.6 mL/min/kg |  |  |  |  | Fc1cnc2c(Nc3ccc4c(O[C@H]5CCOC5)nccc4c3)n[nH]c2c1 [Compound 95]
10 | 0.5 ± 0.2 µM (≈ 0.188 µg/mL) | 0.02 | 0.47 | 0.09 | 0.004 | 0.02 | 154 mL/min/kg | 48.1 mL/min/kg | 67.6 mL/min/kg | 15.4 mL/min/kg |  |  |  |  | c1cc2cc(Nc3n[nH]c4nccnc34)ccc2c(OCC2CCOCC2)n1 [Compound 82]
11 | 3.3 ± 0.2 µM (≈ 1.19 µg/mL) |  |  |  |  |  | 377 mL/min/kg | 59.0 mL/min/kg | 109 mL/min/kg | 17.6 mL/min/kg |  |  |  |  | C[C@H]1OCC[C@H]1Oc1nccc2cc(Nc3n[nH]c4cccnc34)ccc12 [Compound 91]
12 | 0.3 ± 0.2 µM (≈ 0.106 µg/mL) |  |  |  |  |  | 327 mL/min/kg | 57.7 mL/min/kg | 37 mL/min/kg | 13.4 mL/min/kg |  |  |  |  | COCCOc1nccc2cc(Nc3n[nH]c4ncc(F)cc34)ccc12 [Compound 96]
13 | 15.2 ± 1.5 µM (≈ 5.93 µg/mL) |  |  |  |  |  | 923 mL/min/kg | 65.1 mL/min/kg | 87.6 mL/min/kg | 16.9 mL/min/kg |  |  |  |  | c1cnc2[nH]nc(Nc3ccc4c(OCCN5CCOCC5)nccc4c3)c2c1 [Compound 94]

Continued, compound first:

Row | SMILES | solubility kinetic (Kinetic solubility) | fraction unbound [1] | Kp (Brain-plasma partition) | unbound brain-to-plasma partition coefficient (Kp,uu) (Brain-plasma partition) | fraction unbound [2] | fraction unbound [3] | CLint scaled [4] | Rat CLhep [4] | CLint scaled [5] | Human CLhep [5] | IC50 (3A4) | IC50 (2D6) | IC50 (2C9) | IC50 (1A2)
14 | CCOCCOc1nccc2cc(Nc3n[nH]c4cccnc34)ccc12 [Compound 69] | 9.9 ± 2.7 µM (≈ 3.46 µg/mL) | 0.023 | 1.23 | 0.27 | 0.005 | 0.017 |  |  |  |  |  |  |  | 
15 | c1cnc2c(Nc3ccc4c(OCC5CCOC5)nccc4c3)n[nH]c2c1 (centres unmarked) [Compound 71] |  | 0.024 | 0.8 | 0.1 | 0.003 | 0.015 | 151 mL/min/kg | 47.8 mL/min/kg | 41.1 mL/min/kg | 13.9 mL/min/kg | 15.4 µM | 19.7 µM | 4.59 µM | 8.48 µM
16 | c1cnc2[nH]nc(Nc3ccc4c(O[C@@H]5CCOC5)nccc4c3)c2c1 [Compound 65] |  | 0.043 | 1.28 | 0.09 | 0.003 | 0.028 |  |  |  |  |  |  |  | 
17 | c1cnc2c(Nc3ccc4c(O[C@@H]5CCCOC5)nccc4c3)n[nH]c2c1 [Compound 62] | 10.3 ± 1.1 µM (≈ 3.72 µg/mL) | 0.038 | 3.38 | 0.36 | 0.004 | 0.017 | 461 mL/min/kg | 60.8 mL/min/kg | 58.3 mL/min/kg | 15.4 mL/min/kg | 4.76 µM | 27.8 µM | 3.96 µM | 6.32 µM
18 | c1cnc2[nH]nc(Nc3ccc4c(O[C@H]5CCOC5)nccc4c3)c2c1 [Compound 66] |  | 0.047 | 0.87 | 0.11 | 0.006 | 0.019 | 210 mL/min/kg | 52.5 mL/min/kg | 37.9 mL/min/kg | 13.5 mL/min/kg | > 30 µM | > 30 µM | > 30 µM | > 30 µM
19 | COCCOc1nccc2cc(Nc3n[nH]c4nccnc34)ccc12 [Compound 81] | 0.9 ± 0.2 µM (≈ 0.303 µg/mL) | 0.048 | 0.4 | 0.13 | 0.015 | 0.032 | 74.4 mL/min/kg | 36.1 mL/min/kg | 38.5 mL/min/kg | 13.6 mL/min/kg | > 30 µM | > 30 µM | > 30 µM | 0.79 µM
20 | CCOCCOc1nccc2cc(Nc3n[nH]c4ncccc34)ccc12 [Compound 75] |  | 0.031 | 1 | 0.13 | 0.004 | 0.021 | 456 mL/min/kg | 60.7 mL/min/kg | 71.8 mL/min/kg | 16.2 mL/min/kg |  |  |  | 
21 | c1cnc2[nH]nc(Nc3ccc4c(OCC5COCCO5)nccc4c3)c2c1 (centres unmarked) [Compound 80] | 1.4 ± 0.1 µM (≈ 0.528 µg/mL) | 0.037 | 0.46 | 0.09 | 0.007 | 0.033 | 376 mL/min/kg | 59.0 mL/min/kg | 22.4 mL/min/kg | 10.8 mL/min/kg | > 30 µM | > 30 µM | 26.9 µM | > 30 µM
22 | c1cnc2[nH]nc(Nc3ccc4c(OCC5CCCCO5)nccc4c3)c2c1 (centres unmarked) [Compound 76] |  | 0.01 | 1.27 | 0.13 | 0.001 | 0.008 |  |  |  |  |  |  |  | 
23 | c1cnc2[nH]nc(Nc3ccc4c(OCC5CCOCC5)nccc4c3)c2c1 [Compound 77] |  | 0.008 | 1.59 | 0.4 | 0.002 | 0.013 |  |  |  |  |  |  |  | 
24 | c1cnc2c(Nc3ccc4c(OCC5CCOCC5)nccc4c3)n[nH]c2c1 [Compound 68] |  | 0.009 | 1.06 | 0.12 | 0.001 | 0.008 |  |  |  |  |  |  |  | 
25 | CO[C@H](C)COc1nccc2cc(Nc3n[nH]c4ncccc34)ccc12 [Compound 78] |  | 0.042 | 0.99 | 0.09 | 0.004 | 0.023 |  |  |  |  |  |  |  | 
26 | c1cnc2[nH]nc(Nc3ccc4c(OCC5CCOC5)nccc4c3)c2c1 (centres unmarked) [Compound 79] | < 0.4 µM | 0.019 | 1.5 | 0.16 | 0.002 | 0.018 |  |  |  |  |  |  |  | 
27 | c1cnc2c(Nc3ccc4c(O[C@@H]5CCOC5)nccc4c3)n[nH]c2c1 [Compound 63] |  | 0.036 | 1.27 | 0.18 | 0.005 | 0.018 | 181 mL/min/kg | 50.5 mL/min/kg | 57.8 mL/min/kg | 15.4 mL/min/kg | 22.3 µM | > 30 µM | 13.3 µM | 3.96 µM
28 | c1cc2cc(Nc3n[nH]c4nccnc34)ccc2c(O[C@H]2CCOC2)n1 [Compound 59] | 2.6 ± 1.6 µM (≈ 0.906 µg/mL) |  |  |  |  |  |  |  |  |  |  |  |  | 
29 | c1cnc2c(Nc3ccc4c(OCC5CCCOC5)nccc4c3)n[nH]c2c1 (centres unmarked) [Compound 72] |  | 0.008 | 0.52 | 0.13 | 0.002 | 0.009 | 273 mL/min/kg | 55.7 mL/min/kg | 55.7 mL/min/kg | 15.2 mL/min/kg | 22.7 µM | 24.6 µM | 3.15 µM | 12.9 µM
